Data: patent publication US8426447B2, “Spiro-tricyclic ring compounds as beta-secretase modulators and methods of use” (Amgen Inc., priority 2008, dated 2013)

Legend:
BACE1 [1] = target: T1, BACE1 (Homo sapiens, UniProt P56817); assay: In Vitro Enzymatic BACE FRET (Fluorescence Resonance Energy Transfer) Assay; format: biochemical; conditions: in vitro BACE FRET enzyme assay, IC50 class symbols; read-out: BACE1 FRET assay
Outline: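 Fluorescence read-out after Tris addition raises pH to neutrality and ends the reaction. Before that, a peptide substrate carrying fluorophore and quencher across the BACE cleavage site (50 nM) is incubated with enzyme for one hour at pH 4.2 in acetate containing 10% DMSO and sub-micellar genapol.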

BACE1 [2] = target: T1, BACE1; assay: In Vitro BACE Cell-based Assay (HEK cell assay): Aβ40 in conditioned medium of cells stably expressing Amyloid Precursor Protein, sandwich ELISA; conditions: HEK cell-based assay, Aβ40 in conditioned medium, IC50 class symbols; read-out: HEK cell assay
Outline: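 HEK cells stably expressing APP were treated 24 h with compound in 10-point dose response starting at 100 or 10 μM (0.1% DMSO). Secreted Aβ40 quantified by sandwich ELISA (pAb40 capture, biotinylated 6E10 detection, europium time-resolved fluorescence), with IC50 derived from percent inhibition versus concentration.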

T1 sequence (P56817 46-501, species assumed): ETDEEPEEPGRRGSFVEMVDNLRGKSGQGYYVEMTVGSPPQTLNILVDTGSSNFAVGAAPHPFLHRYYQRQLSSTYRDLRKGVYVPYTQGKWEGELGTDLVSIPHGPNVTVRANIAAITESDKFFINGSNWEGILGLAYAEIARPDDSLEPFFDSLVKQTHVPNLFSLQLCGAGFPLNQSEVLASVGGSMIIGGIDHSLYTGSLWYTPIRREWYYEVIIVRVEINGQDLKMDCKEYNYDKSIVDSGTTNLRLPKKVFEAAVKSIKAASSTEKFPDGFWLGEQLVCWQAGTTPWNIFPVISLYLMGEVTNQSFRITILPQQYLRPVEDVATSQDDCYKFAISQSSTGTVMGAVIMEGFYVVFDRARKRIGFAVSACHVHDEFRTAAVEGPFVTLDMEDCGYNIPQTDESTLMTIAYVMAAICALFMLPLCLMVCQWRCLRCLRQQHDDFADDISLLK

IC50 (BACE1 [1]) [nM]	IC50 (BACE1 [2]) [nM]	Structure (SMILES)
100 to 1000	1000 to 5000	Cc1cncc(-c2ccc3c(c2)[C@@]2(COC(N)=N2)c2cc(Cl)ncc2O3)c1 [compound 327]
< 100	100 to 1000	Cn1cc(-c2cccc(-c3ccc4c(c3)[C@@]3(COC(N)=N3)c3cc(-c5cnn(C)c5)ncc3O4)c2)cn1 [compound 328]
< 100	< 100	Cn1cc(-c2cc3c(cn2)Oc2ccc(-c4cccc(Cl)c4)cc2[C@@]32COC(N)=N2)cn1 [compound 329]
< 100	< 100	NC1=N[C@@]2(CO1)c1cc(-c3cc(Cl)ccc3F)ccc1Oc1cnc(-c3ccncc3)cc12 [compound 330]
< 100	< 100	NC1=N[C@@]2(CO1)c1cc(-c3cncc(F)c3)ccc1Oc1cnc(C3CCOCC3)cc12 [compound 331]
< 100	< 100	Cc1cnc(F)c(-c2ccc3c(c2)[C@@]2(COC(N)=N2)c2cc(C4CCOCC4)ncc2O3)c1 [compound 332]
< 100	< 100	Cn1cc(-c2cc3c(cn2)Oc2ccc(-c4cccnc4F)cc2[C@@]32COC(N)=N2)cn1 [compound 333]
100 to 1000	100 to 1000	NC1=N[C@@]2(CO1)c1cc(-c3cccnc3)ccc1Oc1ccc(N3CCOCC3)nc12 [compound 334]
< 100	< 100	NC1=N[C@@]2(CO1)c1cc(-c3cccnc3)ccc1Oc1cnc(N3CCOCC3)cc12 [compound 335]
< 100	100 to 1000	NC1=N[C@@]2(CO1)c1cc(-c3cccnc3N3CCOCC3)ccc1Oc1cnc(N3CCOCC3)cc12 [compound 336]
1000 to 5000	> 5000	NC1=N[C@@]2(CO1)c1cc(-c3cccnc3N3CCOCC3)ccc1Oc1cnc(Cl)cc12 [compound 337]
< 100	< 100	NC1=N[C@@]2(CO1)c1cc(-c3cccnc3F)ccc1Oc1ccc(C3CCOCC3)nc12 [compound 338]
< 100	< 100	CCOC(C)(C)C#Cc1cnc2c(c1)[C@]1(COC(N)=N1)c1cc(-c3cccnc3)ccc1O2 [compound 347]
100 to 1000	1000 to 5000	COC(C)(C)COc1cnc2c(c1)[C@@]1(COC(N)=N1)c1cc(-c3ccccc3)ccc1O2 [compound 349]
< 100	< 100	COC(C)(C)COc1cnc2c(c1)[C@]1(COC(N)=N1)c1cc(-c3ccccc3)ccc1O2 [compound 350]
< 100	< 100	CC(C)(F)COc1cc2c(cc1F)Oc1ccc(-c3cccnc3)cc1[C@@]21COC(N)=N1 [compound 353, (4S)-3′-fluoro-2′-(2-fluoro-2-methylpropoxy)-7′-(3-pyridinyl)spiro[1,3-oxazole-4,9′-xanthen]-2-amine]
< 100	< 100	CC(C)(F)COc1cnc2c(c1)[C@]1(COC(N)=N1)c1cc(-c3cccc(C#N)c3)ccc1O2 [compound 357]
< 100	< 100	CC(C)(C)COc1cnc2c(c1)[C@]1(COC(N)=N1)c1cc(-c3cccc(C#N)c3)ccc1O2 [compound 358]
100 to 1000	100 to 1000	CC(C)C[C@H]1CN(c2ccc3c(c2)[C@]2(COC(N)=N2)c2cc(-c4cccnc4)ccc2O3)CCO1 [compound 359]
100 to 1000	100 to 1000	CC(C)C[C@@H]1CN(c2ccc3c(c2)[C@]2(COC(N)=N2)c2cc(-c4cccnc4)ccc2O3)CCO1 [compound 360]
100 to 1000	< 100	COCC[C@H]1CN(c2ccc3c(c2)[C@]2(COC(N)=N2)c2cc(-c4cccnc4)ccc2O3)CCO1 [compound 361]
100 to 1000	100 to 1000	COCC[C@@H]1CN(c2ccc3c(c2)[C@]2(COC(N)=N2)c2cc(-c4cccnc4)ccc2O3)CCO1 [compound 362]
> 5000	> 5000	COc1ccc2c(c1)[C@]1(COC(N)=N1)c1cc(C3=CCOCC3)cc(F)c1O2 [compound 363]

Structure (SMILES)	IC50 (BACE1 [1]) [nM]	IC50 (BACE1 [2]) [nM]
C[Si](C)(C)C#Cc1cnc2c(c1)[C@]1(COC(N)=N1)c1cc(-c3cccnc3)ccc1O2 [compound 348]	< 100	< 100
